# Experimental data reported in patent publication US20170349879A1, “METHOD FOR CULTURING NORMAL CELLS AND ODONTOMA CELLS CONTAINED IN ORAL TISSUE” (CHIBA UNIVERSITY, priority 2014, published 2017).
# How the values were obtained:
# B6C3F1/Crlj mice = assay: Toxicity in mice administered intraperitoneally with a Rock inhibitor; assay type: in vivo; conditions: 10 mg/kg/day intraperitoneal, once a day for 14 days
# Protocol: 4.3 Histopathological Analysis of Organ Toxicity in Mice Administered Intraperitoneally with a Rock Inhibitor Animal used: B6C3F1/Crlj mice (CLEA Japan, Inc., Japan) n=12 for each group (male: 6, female: 6), n=4 for the control group (male: 2, female: 2) Drug: Y-27632 Dose: 10 mg/kg/day (0.25 mg/day for 25 g body weight) Y-27632 was dissolved in PBS and intraperitoneally administered. The control group was administered with an equal volume of PBS. Administration period: administered once a day for successive 14 days. Half of the mice in each group were monitored for follow-up purposes for 14 days after administration. (i) Groups receiving a Rock inhibitor (RI+): n=12 (male: 6, female: 6) A. Group subjected to blood collection and autopsy at the time of the completion of administration (at 14 days after the initiation of administration). n=6 (male: 3, female: 3) B. Group subjected to blood collection and autopsy at the time of the completion of administration (at 28 days after the initiation of administration). n=6 (male: 3, female: 3) The mice were visually observed for their general condition once a day. The mice were measured daily for their body weight and feed/water intake. Hematological tests were performed on each mouse before administration and after administration (on the 14th day). * In each group, 3 male and 3 female mice were subjected to blood collection and autopsy on the 14th day of administration. […] These mice were subjected to blood examination and autopsy on the 28th day after the initiation of administration. Blood counting: red blood cell count, white blood cell count, platelet count, hematocrit value, red blood cell fraction. Biochemical parameters: TP, ALB, CRE, Na, K, GOT, GPT, T-CHO, Glu On the […], 3 male and 3 female mice from each group were subjected to autopsy. The remaining 3 male and 3 female mice were subjected to autopsy on the 28th day after being monitored for follow-up purposes. […]
# [1] = system: cancer-associated fibroblasts (CAFs); assay: Cell culture of cancer-associated fibroblasts using a Rho kinase inhibitor (cell morphology); assay type: cell-based, human; conditions: inhibitor-containing medium (10 μM); passage 7 with inhibitor vs passage 1 without; FIG. 14
# Protocol: Odontoma cells, oral mucosal epithelial cells, fibroblasts, and cancer-associated fibroblasts (CAFs) (i) Patient-derived cells for use as a source material were taken in a required amount as described above. (ii) The cells were washed three times with phosphate-buffered physiological saline (PBS) (supplemented with 10 units/ml of penicillin and 100 μg/ml of streptomycin: Sigma-Aldrich). (iii) The cells were cut into small pieces with sterilized iris scissors and a surgical knife (No. 11). (iv) After addition of trypsin (TrypLE Select Enzyme, Gibco, Code No. A12177-01), the cells were shaken at 37° C. for 30 minutes. (v) The cells were mixed with Dulbecco's modified Eagle medium (DMEM: Sigma-Aldrich) (supplemented with 10% fetal bovine serum: Nichirei Bioscience Inc., Japan, 10 units/ml of penicillin and 100 μg/ml of streptomycin), and centrifugation (at 1000 rpm for 5 minutes) was repeated three times. (vi) The cells were mixed with DMEM (supplemented with 10% fetal bovine serum, 10 units/ml of penicillin, 100 μg/ml of streptomycin, 10 μM of the Rock kinase inhibitor and 0.3 μM of L-ascorbic acid 2-phosphate: Sigma-Aldrich) (DMEM+) and then seeded into collagen type I-coated cell culture dishes (IWAKI). (vii) The cells were washed with PBS once every three days to replace the above medium. (viii) The cultured cells were subcultured at 80% confluency. […]
compound,measurement,setting,value
"CC(N)[C@H]1CC[C@H](C(=O)Nc2ccncc2)CC1 (stereo partly drawn) [Rock inhibitor, (R)-(+)-trans-N-(4-pyridyl)-4-(1-aminoethyl)-cyclohexanecarboxamide]",hematological tests,B6C3F1/Crlj mice; FIG. 7,No abnormal findings were observed
same,time course of body weight changes,B6C3F1/Crlj mice; FIG. 8,No abnormal findings were observed
same,histopathological examination of organs,"B6C3F1/Crlj mice; HE staining, FIG. 9",No abnormal findings were observed
same,cell morphology of cancer-associated fibroblasts on repeated subculture,[1],maintain their cell morphology even when repeatedly subcultured
